Assay type in all cases: cell-based, human
Assay [1] concerns MCF-10A cells. The assay can be described thus: Cell morphology (inverted microscope). Particulars: 50 μM, 24 h. As to the method:
(§1) Exponentially growing MDA-MB-231, MCF-7 or MCF-10A cells were harvested, counted and seeded (1x10^5 cells/mL) and plated on sterile 12-well plates for 24 h. Cells were allowed to grow at 37°C in 5% CO2 overnight and then, treated or not (control) with different concentrations of the complexes (1–4) for 2 and 24 h. Cell morphology was examined under an inverted microscope (Nikon, T5100) with amplification of 100×.
(§2) In this work the cytotoxicity of the complexes was evaluated against the MDA-MB-231, MCF-7 and MCF-10A cells by morphology, clonogenic and MTT assays (Fig 2, Table 1). To investigate the effects on cell morphology, the complexes were incubated with cells at concentrations of 25 and 50 μM for 24 h.

In assay [2] the test system is MDA-MB-231 cells. The assay can be described thus: Cell morphology (inverted microscope). Particulars: MDA-MB-231, 50 μM, 24 h. As to the method:
as §1, §2

For assay [3], the system named is MCF-10A cells. The assay can be described thus: MTT cell proliferation assay. Particulars: 24 h of incubation, read-out: IC50 ±SEM MCF-10A. As to the method:
(§3) MDA-MB-231 human breast tumor cells and MCF7 human breast tumor cells, obtained from Rio de Janeiro Cell Bank, were maintained at 37°C in 5% CO2 in DMEM medium containing fetal bovine serum (FBS) 10% (Vitrocell). MCF-10A, a non-tumor breast cell line, obtained from Rio de Janeiro Cell Bank, was cultivated in DMEM/F12 medium containing horse serum (HS) 5%, EGF (0.02 mg/mL); hydrocortisone (0.05 mg/mL); cholera toxin (0.001 mg/mL) and insulin (0.01 mg/mL). Both media contained penicillin (100 UI/mL), streptomycin ([…]) and L-glutamine (2 mM).
(§4) Proliferation assays were performed as described earlier. Briefly, cells lines were prepared in a concentration of 1x10^4 cells/100 μL, in complete medium (with 10% FBS), and plated on sterile 96-well plates for 24 h. The culture medium was removed from the wells and a new one, supplemented with 10% FBS and containing different concentrations of (1) [Ru(SO4)(dppb)(bipy)] (2) [Ru(CO3)(dppb)(bipy)], (3), [Ru(C2O4)(dppb)(bipy)], or (4) [Ru(CH3CO2)(dppb)(bipy)]PF6, was added to the wells. Cells were incubated for 24 h under the same conditions as described above. Cell proliferation assay was performed in comparison with untreated control. After incubation, the culture medium of each well was removed and a solution containing MTT (1 mg/mL) was added (100 μL/well). The plates were then kept at 37°C for 4 h and the formed crystals were dissolved in DMSO. The absorbance was read on an ELISA plate reader at a wavelength of 540 nm. […] The selectivity index (SI) was calculated as the ratio IC50 (MCF-10A) / IC50 (MDA-MB-231).
(§5) Each experiment was repeated three times in triplicate and a standard error mean was calculated. Shapiro-Wilk’s test was used to verify data normality. As normal distribution was present, the results were compared statistically with a one-way or two-way analysis of variance (ANOVA). […] The data were analysed and IC50 calculations were made using Hill’s equation in the GraphPad Prism software (version 6.05).

Assay [4] has as its system MDA-MB-231 cells. The assay can be described thus: MTT cell proliferation assay. As to conditions: 24 h of incubation, read-out: IC50 ±SEM MDA-MB-231. As to the method:
as §3, §4, §5
On the technique in general: Tetrazolium assays rely on reduction of a dye to a coloured formazan, in cell work by metabolically active cells.

In assay [5] the test system is MCF-7 cells. The assay can be described thus: MTT cell proliferation assay. As to conditions: 24 h of incubation, read-out: IC50 ±SEM MCF-7. As to the method: as §3, §4, §5
Assay [6] deals with MDA-MB-231 cells. The assay can be described thus: Boyden chamber migration assay. As to conditions: 5, 10 and 20 μM, 22 h. As to the method:
Cell migration was also assessed in a chemotactic assay using 24 well Boyden chambers (BD Biosciences) as described earlier. MDA-MB-231 (0.5 x 10^5/350 μL) cells, incubated or not with complex (4) 5, 10 and 20 μM were seeded on the upper chamber in a DMEM incomplete medium (without FBS). In the lower chamber DMEM medium supplemented with 10% FBS was added. Cells were allowed to migrate for 22 h at 37°C and 5% CO2 in a humidified environment. Then, cells that remained in the upper chamber were removed using a cotton swab. Cells that migrated to the other side of the upper chamber membrane were fixed with methanol and stained with 1% toluidine blue. Migrated cells were quantified by manual counting and inhibition ratio was expressed as % of control.

For assay [7], the system named is MDA-MB-231 cells. The assay can be described thus: Matrigel transwell invasion assay. Particulars: 20 μM, 22 h. As to the method:
The effect of different concentrations of complex (4) 5, 10 μM and 20 μM on MDA-MB-231 tumor cell invasiveness was determined by the ability to transmigrate through a layer of matrigel in a transwell chamber (BD Biosciences) as described earlier. Wells were rehydrated with the addition of 1mL of warm (37°C) incomplete culture medium for 2 h. MDA-MB-231 cells (0.5 x 10^5/350 μL) were loaded on the top of matrigel in a DMEM incomplete medium. DMEM medium supplemented with 10% FBS was placed on the bottom chamber of the transwell units. Twenty-two hours later, cells that remained in the upper chamber were removed using a cotton swab and invasive cells were fixed with methanol and stained with 1% toluidine blue. The invaded cells were quantified by manual counting and inhibition ratio was expressed as % of control.

Assay [8] deals with MDA-MB-231 cells. The assay can be described thus: Colony formation (clonogenic) assay. Particulars: 3 h treatment, 10 days. As to the method:
Exponentially growing MDA-MB-231 cells were harvested, counted and seeded (300 cells/plate) into Petri dishes. Cells were allowed to grow at 37°C in 5% CO2 overnight and then, treated with different concentrations of complex (4) for 3 h. After this time, the medium was changed to a fresh medium without any complex. After incubation for additional 10 days the cells were rinsed with PBS, fixed with methanol and acid acetic 3:1 for 5 min and stained with methanol and crystal violet 5% for 15min. Relative survival was calculated from the number of single cells that formed colonies of >50 cells on the tenth day.

Assay [9] relates to MDA-MB-231 cells. The assay can be described thus: DAPI staining for nuclear fragmentation. As to conditions: 60 and 70 μM, 3 h. As to the method:
The apoptotic activity of the complex (4) was analyzed by DAPI staining and flow cytometry with PE-Annexin-V Apoptosis Detection Kit (BD Biosciences). For DAPI staining, MDA-MB-231 cells (2.0 x 10^4/100 μL) were seeded in 96-wells plates and maintained at 37°C in a humidified incubator with 5% CO2 for 24 h. In the next day, cells were treated with 60 and 70 μM of complex (4) and incubated for 3 h. Next, cells were washed with PBS, fixed with methanol and stained with DAPI 1 μg/mL (Life Technologies, Carlsbad, CA) in DMEM medium without FBS for 10 min. Fluorescence was captured in automated microscope ImageXpress® Micro XLS System (Molecular Devices).

The structures appear in SMILES notation.

As for `CC(=O)[O-].F[P-](F)(F)(F)(F)F.[Ru+2].c1ccc(-c2ccccn2)nc1.c1ccc(P(CCCCP(c2ccccc2)c2ccccc2)c2ccccc2)cc1` [Complex (4), [Ru(CH3CO2)(dppb)(bipy)]PF6], the “effect on cell morphology / cell density” value in [1] was “profoundly altered their morphology”. Besides, the “effect on cell morphology” value in assay [2] is “profoundly altered their morphology”. The IC50 (in general, the midpoint of a concentration-inhibition curve) in assay [3] is 48.89 ± 0.09 µM; in [4], 31.16 ± 0.04 µM; in assay [5], above 200 µM. In assay [6], the “effect on cell migration (Boyden chamber)” value is on record as “inhibited MDA-MB-231 cell migration in a concentration dependent fashion”. The “inhibition of invasion compared to control” value in assay [7] is “approximately 80%”. For the same compound, the “effect on colony formation” value in [8] (20 μM) is on record as “completely abolished the capacity of breast tumor cells to form colonies”. In addition, in assay [8] (2.5, 5, 10 and 20 μM), the “effect on colony number and size” value is “significantly inhibited the colony number and size”. Also, the “apoptotic nuclei (DAPI)” value in assay [9] is “more apoptotic nucleic”.

(Values after PMC5595280, “Cytotoxicity and anti-tumor effects of new ruthenium complexes on triple negative breast cancer cells” (PLoS ONE, 2017).)
